From patent US20250197451A1, “USE OF BIOACTIVE POLYPEPTIDE SYNTHESIZED ON BASIS OF KDM2B SEQUENCE IN NEURAL DIFFERENTIATION AND REGENERATION AND REPAIR OF MESENCHYMAL STEM CELLS” (CAPITAL MEDICAL UNIVERSITY SCHOOL OF STOMATOLOGY, priority 2021, published 2025)
Values joined by “and” are separate entries in the source; they are usually repeats but may differ in a detail not shown here. Equal values may be shown once. Ends that are not written are not given here.

Legend:
KDM2B = test: real-time fluorescence reverse transcription quantitative PCR, KDM2B/GAPDH in SCAPs; format: cell-based, human
Protocol: The plasmid was constructed according to standard methods. The complementary shRNA sequence targeting KDM2B gene was cloned into the viral vector pLKO.1 plasmid, sequenced and identified to complete the construction of the KDM2B shRNA plasmid. After PCR primers were designed for the full-length sequence of the KDM2B gene, the full-length sequence of the KDM2B gene was obtained by amplification, and the HA Tag was added. The tagged full-length KDM2B gene was ligated with the pQCXIN retroviral expression vector, sequenced and identified to obtain the plasmid containing the HA tagged full-length KDM2B gene. The virus packaging was carried out, and the resulting virus was collected, and the virus titer was measured. The virus was aliquoted and stored in the refrigerator at −80° C. The virus at a titer of 10-7 was incubated with stem cells from apical papillae in the presence of polybrene for 48 hours for infection, and the antibiotic was used to screen the infected cells. The sequence of the complementary shRNA targeting the KDM2B gene was represented as KDM2Bsh, with a nucleic acid sequence of 5′-[…]-3′ (SEQ ID NO: 287).

[1] = system: stem cells from apical papilla (SCAPs); test: neural induction in vitro: neurosphere formation with βIII-TUBULIN / NESTIN immunofluorescence staining; format: cell-based, human
Text: […]

EZH2 protein = EZH2 protein (Homo sapiens, UniProt Q15910); test: KDM2B polypeptide microarray immune-hybridization with biotin-labelled EZH2 protein; format: binding; settings: for Intensity (%) (gray intensity of colored points on the KDM2B polypeptide microarray): biotin-labelled EZH2 1 μg/ml, highest optical density set to 100%, some points noise/spike; for binding site of KDM2B to EZH2 (positive / negative): polypeptide microarray
Text: […]

[2] = system: rat model of spinal cord injury (completely transected T10 spinal cord); test: rat model of spinal cord injury, transplantation of stem cells from apical papilla (BBB score, gross appearance); format: in vivo; settings: SCI + SCAPs pre-treated with 10 μg/ml peptide 24 hours, individual rats
Text: […]

[3] = system: rat model of spinal cord injury (complete transection site T10 spinal cord); test: rat model of spinal cord injury, local injection of peptide alone (BBB score, gross appearance); format: in vivo; settings: SCI + peptide alone, 10 μg/ml in 30 μl weekly local injection, individual rats
Protocol: 10 μg/ml of peptide 46-47 in a total of 30 μl was weekly injected into 10-week-old rats at the complete transection site T10 spinal cord (5 individual rats per group).

[4] = virally transfected SCAPs (overexpression or knockdown), Day 9, individual samples
[5] = SCAPs + 10 μg/ml peptide, Day 9 of induction, individual samples
[6] = SCAPs + 10 μg/ml peptide, Day 9 of induction, mean of 5 samples

EZH2 protein, sequence (Q15910 whole entry, species assumed): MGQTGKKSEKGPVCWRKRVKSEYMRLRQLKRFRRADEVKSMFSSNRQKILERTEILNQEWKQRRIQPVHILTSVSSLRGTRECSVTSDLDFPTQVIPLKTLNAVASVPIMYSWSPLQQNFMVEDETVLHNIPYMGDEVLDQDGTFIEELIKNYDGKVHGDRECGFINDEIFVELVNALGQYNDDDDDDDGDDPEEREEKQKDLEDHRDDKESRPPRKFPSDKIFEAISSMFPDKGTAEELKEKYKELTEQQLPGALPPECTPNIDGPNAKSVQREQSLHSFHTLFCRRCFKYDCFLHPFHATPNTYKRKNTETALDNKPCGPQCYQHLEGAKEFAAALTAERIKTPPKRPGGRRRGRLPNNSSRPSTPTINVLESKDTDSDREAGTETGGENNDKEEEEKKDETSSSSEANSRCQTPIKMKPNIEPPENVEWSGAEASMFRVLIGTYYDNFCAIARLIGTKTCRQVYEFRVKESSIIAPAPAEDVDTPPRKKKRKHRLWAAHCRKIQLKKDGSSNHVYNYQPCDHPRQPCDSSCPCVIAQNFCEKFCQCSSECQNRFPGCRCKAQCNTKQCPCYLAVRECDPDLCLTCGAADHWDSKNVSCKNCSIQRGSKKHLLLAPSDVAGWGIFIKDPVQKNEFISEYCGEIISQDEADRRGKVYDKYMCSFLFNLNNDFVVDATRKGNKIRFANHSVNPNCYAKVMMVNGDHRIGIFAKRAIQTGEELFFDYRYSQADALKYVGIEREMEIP

5′-ATTTTGACGGGGTGGATAATCTG-3′ (expressed or natural sequence) [KDM2Bsh, complementary shRNA targeting the KDM2B gene, cloned into viral vector pLKO.1, reference compound]
Expression of KDM2B/GAPDH in KDM2B-knockdown SCAPs (fold) (KDM2B; individual samples): 0.34 fold and 0.31 fold and 0.28 fold
Expression of KDM2B/GAPDH in KDM2B-knockdown SCAPs (fold), Means (KDM2B; mean of 3 samples, Scramsh 1.0003): 0.3067 fold
Number of NESTIN-positive neurospheres [1, 4]: 5 and 4 and 2 (2×) and 3
Number of βIII-TUBULI-positive neurospheres [1, 4]: 4 (2×) and 2 and 6 and 3
Number of βIII-TUBULI-positive neurospheres, Means ([1]; virally transfected SCAPs (overexpression or knockdown), Day 9, mean of 5 samples, Vector 9, Scramsh 9): 3.8
Number of NESTIN-positive neurospheres, Means ([1]; virally transfected SCAPs (overexpression or knockdown), Day 9, mean of 5 samples, Vector 11, Scramsh 8.2): 3.2

A V G T T T R D S L T E I N L (AVGTTTRDSLTEINL; synthesized KDM2B peptide) [compound 253]
Intensity (%) (gray intensity of colored points on the KDM2B polypeptide microarray) (EZH2 protein): 70.41%

C I M R Q C I A P V L P H T A (CIMRQCIAPVLPHTA; synthesized KDM2B peptide) [compound 130]
Intensity (%) (gray intensity of colored points on the KDM2B polypeptide microarray) (EZH2 protein): 30.8%

ConPP: control polypeptide synthesized from the negative binding sites (peptide 83-84) of KDM2B, with cell-penetrating peptide and FITC label (EEEACDQQPQEEEEKDEEGE; also: cell-penetrating peptide and FITC label, sites not given here)
Number of NESTIN-positive neurosphers [1, 5]: 3 (2×) and 4 (2×) and 6
Number of βIII-TUBULIN-positive neurosphers [1, 5]: 8 (2×) and 6 (2×) and 7
Number of NESTIN-positive neurosphers, Means [1, 6]: 4
Number of βIII-TUBULIN-positive neurosphers, Means [1, 6]: 7
BBB score of hind limb motor function ([2]; 0 w): 5 and 4 (4×)
BBB score of hind limb motor function ([2]; 1 w): 5 (3×) and 6 (2×)
BBB score of hind limb motor function ([2]; 2 w): 6 (2×) and 7 (3×)
BBB score of hind limb motor function ([2]; 3 w): 8 (3×) and 9 (2×)
BBB score of hind limb motor function ([2]; 4 w): 10 (2×) and 11 and 12 and 13
BBB score of hind limb motor function ([3]; 1 w): 6 (3×) and 5 (2×)
BBB score of hind limb motor function ([3]; 2 w): 7 (2×) and 6 (2×) and 8
BBB score of hind limb motor function ([3]; 3 w): 9 (3×) and 10 and 8
BBB score of hind limb motor function ([3]; 4 w): 12 (2×) and 11 (3×)
BBB score of hind limb motor function [3]: 4 (3×) and 5 (2×)

D Q Q P Q E E E E K D E E G E (DQQPQEEEEKDEEGE; synthesized KDM2B peptide) [peptide 84]
binding site of KDM2B to EZH2 (positive / negative) (EZH2 protein): negative

E E E A C D Q Q P Q E E E E K (EEEACDQQPQEEEEK; synthesized KDM2B peptide) [peptide 83]
binding site of KDM2B to EZH2 (positive / negative) (EZH2 protein): negative

G K Q S D I F L G D R V E R C (GKQSDIFLGDRVERC; synthesized KDM2B peptide) [compound 57]
Intensity (%) (gray intensity of colored points on the KDM2B polypeptide microarray) (EZH2 protein): 39.95%

I Y E I E D R T R V Q P K F R (IYEIEDRTRVQPKFR; synthesized KDM2B peptide) [compound 69]
Intensity (%) (gray intensity of colored points on the KDM2B polypeptide microarray) (EZH2 protein): 0.15%

L A V D Y P K T P T G S P A T (LAVDYPKTPTGSPAT; synthesized KDM2B peptide) [compound 98]
Intensity (%) (gray intensity of colored points on the KDM2B polypeptide microarray) (EZH2 protein): 0.77%

Q P K F R Y P F Y Y E M C W Y (QPKFRYPFYYEMCWY; synthesized KDM2B peptide) [compound 71]
Intensity (%) (gray intensity of colored points on the KDM2B polypeptide microarray) (EZH2 protein): 0.57%

T E I N L S D C N K V T D Q C (TEINLSDCNKVTDQC; synthesized KDM2B peptide) [compound 255]
Intensity (%) (gray intensity of colored points on the KDM2B polypeptide microarray) (EZH2 protein): 100%

T R D S L T E I N L S D C N K (TRDSLTEINLSDCNK; synthesized KDM2B peptide) [compound 254]
Intensity (%) (gray intensity of colored points on the KDM2B polypeptide microarray) (EZH2 protein): 100%

V L E R Y V Y C V T Q R S H L (VLERYVYCVTQRSHL; synthesized KDM2B peptide) [compound 74]
Intensity (%) (gray intensity of colored points on the KDM2B polypeptide microarray) (EZH2 protein): 0.25%
